As usually defined, the EC50 is the midpoint of the concentration-response curve.

Chain of human mGluR5 receptor (P41594 21-1212): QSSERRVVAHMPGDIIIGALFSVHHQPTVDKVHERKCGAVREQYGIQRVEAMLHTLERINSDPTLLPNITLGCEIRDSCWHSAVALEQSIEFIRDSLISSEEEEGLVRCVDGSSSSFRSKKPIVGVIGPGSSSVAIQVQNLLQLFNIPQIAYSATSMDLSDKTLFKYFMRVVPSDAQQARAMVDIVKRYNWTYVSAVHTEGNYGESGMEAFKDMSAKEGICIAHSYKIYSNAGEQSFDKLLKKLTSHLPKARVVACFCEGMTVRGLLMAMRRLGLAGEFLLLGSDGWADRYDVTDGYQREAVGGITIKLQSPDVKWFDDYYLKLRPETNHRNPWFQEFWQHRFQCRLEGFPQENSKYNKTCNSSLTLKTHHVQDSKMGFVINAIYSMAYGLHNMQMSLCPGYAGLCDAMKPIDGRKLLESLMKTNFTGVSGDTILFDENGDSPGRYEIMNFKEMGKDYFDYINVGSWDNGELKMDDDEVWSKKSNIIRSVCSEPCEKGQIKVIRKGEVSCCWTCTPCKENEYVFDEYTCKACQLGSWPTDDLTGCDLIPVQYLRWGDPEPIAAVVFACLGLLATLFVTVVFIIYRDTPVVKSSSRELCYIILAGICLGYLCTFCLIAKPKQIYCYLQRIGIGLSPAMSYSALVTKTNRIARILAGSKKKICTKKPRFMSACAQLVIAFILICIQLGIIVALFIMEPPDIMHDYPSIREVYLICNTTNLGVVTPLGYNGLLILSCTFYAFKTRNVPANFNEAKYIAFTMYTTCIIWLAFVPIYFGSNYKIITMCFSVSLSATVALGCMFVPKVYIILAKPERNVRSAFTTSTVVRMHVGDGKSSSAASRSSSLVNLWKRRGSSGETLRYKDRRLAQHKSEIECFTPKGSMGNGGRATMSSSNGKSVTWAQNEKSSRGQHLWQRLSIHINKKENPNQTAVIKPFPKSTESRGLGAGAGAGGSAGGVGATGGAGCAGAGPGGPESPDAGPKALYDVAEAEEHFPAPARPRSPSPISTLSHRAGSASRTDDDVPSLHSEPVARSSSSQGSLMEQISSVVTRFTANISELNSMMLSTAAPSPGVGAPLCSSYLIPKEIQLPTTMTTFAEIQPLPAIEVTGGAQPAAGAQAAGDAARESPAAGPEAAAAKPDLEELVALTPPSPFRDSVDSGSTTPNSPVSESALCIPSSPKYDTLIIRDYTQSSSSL

This assay addresses human mGluR5 receptor (Homo sapiens (Human), UniProt P41594). The experiment in a line: Calcium influx assay based on fluorescence (mGluR5 PAM activity). The conditions noted are these: human mGluR5 receptor-overexpressed HEK293 cell line; L-glutamate EC20; Fluo-4, FLIPR. As for the experimental part:
Efficacy as a positive allosteric modulator (PAM) of mGluR5 of the compounds of the Examples was tested as follows:
Calcium Influx Assay Based on Fluorescence
Ca^2+ (calcium) influx assay is an experiment for measuring the activity of a positive allosteric modulator of mGluR5 receptor in which human mGluR5 receptor-overexpressed HEK293 cell line is used. The day before the experiment, cells were prepared in a cell culture medium (DMEM, 5% FBS) with the density of 80,000/well, and 100 μl of cells were dispensed into each well of a poly-D-lysine-coated 96-well plate. Cells were incubated in a 5% CO2, 37° C. incubator. The next day, the cell culture medium was removed from the plate, and 100 μl of 1× Fluo-4 calcium indicator diluted with a buffer (1× Hank's balanced salt solution, 20 mM HEPES, 2.5 mM probenecid) were added to each well and incubated at 37° C. for 1 hour. The compound stock solutions were prepared in 100% DMSO, and the compounds were serially diluted with a ¼ dilution to 6 or 7 concentrations (final concentration was 10 μM to 10 nM). The diluted compound solutions were added to the plate with 0.1 to 0.2% of final DMSO concentration. 1 hour after the addition of Fluo-4 calcium indicator, L-glutamate (EC20 concentration) and the test compound solutions were added to the plate, and Ca^2+ reaction was then measured by FLIPR at room temperature. The activity of the compounds was standardized on the basis of the results of maximum value-minimum value of fluorescent reaction, and the activity value was calculated on the basis that no activity on glutamate EC20 is 0% and the reaction to glutamate maximum value is 100%.
Regarding `Fc1ccc(-c2cnc3nc(COc4ccccn4)cn3n2)c(F)c1` [Example 180, 2-(2,4-difluorophenyl)-6-((pyridin-2-yloxy)methyl)imidazo[1,2-b][1,2,4]triazine], the concentration giving a half-maximal response (EC50) lay within 100 to 500 nM. Then `Fc1ccc(OCc2cn3cc(-c4ccncc4Cl)cnc3n2)cc1` [Example 49, 6-(3-chloropyridin-4-yl)-2-(4-fluorophenoxymethyl)imidazo[1,2-a]pyrimidine], with 500 to 1000 nM. Then `Cc1cc(F)ccc1-c1cnc2nc(COc3cccnc3)cn2c1` [Example 149, 6-(4-fluoro-2-methylphenyl)-2-(pyridin-3-yloxymethyl)imidazo[1,2-a]pyrimidine], with 100 to 500 nM; and `Fc1cc(OCc2cn3cc(-c4ccccc4F)cnc3n2)ccn1` [Example 166, 6-(2-fluorophenyl)-2-(2-fluoropyridin-4-yloxymethyl)imidazo[1,2-a]pyrimidine], with 100 to 500 nM; and `Cc1cc(F)ccc1-c1cnc2nc(COc3ccc(F)nc3)cn2c1` [Example 158, 6-(4-fluoro-2-methylphenyl)-2-(6-fluoropyridin-3-yloxymethyl)imidazo[1,2-a]pyrimidine], with 100 to 500 nM. With `OCc1cc(C(F)(F)F)ccc1-c1cnc2nc(COc3ccccn3)cn2c1` [Example 142, [2-[2-(2-pyridyloxymethyl)imidazo[1,2-a]pyrimidin-6-yl]-5-(trifluoromethyl)phenyl]methanol] the figure was 100 to 500 nM; with `Fc1ccnc(OCc2cn3cc(-c4cccc(F)c4F)cnc3n2)c1` [Example 122, 6-(2,3-difluorophenyl)-2-[(4-fluoro-2-pyridyl)oxymethyl)imidazo[1,2-a]pyrimidine], 500 to 1000 nM. Regarding `Oc1cc(F)ccc1-c1cnc2nc(COc3cccnc3)cn2c1` [Example 150, 6-(4-fluoro-2-hydroxyphenyl)-2-(pyridin-3-yloxymethyl)imidazo[1,2-a]pyrimidine], the EC50 fell in the range of 500 to 1000 nM. `Nc1cc(-c2cnc3nc(COc4ccccc4)cn3c2)ccc1F` [Example 12, 6-(3-amino-4-fluorophenyl)-2-phenoxymethylimidazo[1,2-a]pyrimidine]: the EC50 is 500 to 1000 nM. With `Clc1cnccc1-c1cnc2nc(COc3ccccc3)cn2c1` [Example 36, 6-(3-chloropyridin-4-yl)-2-phenoxymethylimidazo[1,2-a]pyrimidine] the figure was 100 to 500 nM; with `Nc1cc(F)ccc1-c1cnc2nc(COc3ccccc3)cn2c1` [Example 27, 6-(2-amino-4-fluorophenyl)-2-phenoxymethylimidazo[1,2-a]pyrimidine], 100 to 500 nM; with `Oc1ccc(-c2cnc3nc(COc4ccc(F)cc4)cn3c2)cn1` [Example 90, 5-[2-[(4-fluorophenoxy)methyl]imidazo[1,2-a]pyrimidin-6-yl]pyridin-2-ol], 100 to 500 nM. In the case of `Cc1ccncc1-c1cnc2nc(COc3ccccc3)cn2c1` [Example 32, 6-(4-methylpyridin-3-yl)-2-phenoxymethylimidazo[1,2-a]pyrimidine], the half-maximal effective concentration (EC50) is 100 to 500 nM. With `Fc1ccc(-c2cnc3nc(COc4ccncc4)cn3n2)c(F)c1` [Example 179, 2-(2,4-difluorophenyl)-6-((pyridin-4-yloxy)methyl)imidazo[1,2-b][1,2,4]triazine] the figure was 100 to 500 nM; with `Fc1ccc(-c2cnc3nc(COc4cc(F)ccn4)cn3c2)cc1` [Example 123, 6-(4-fluorophenyl)-2-[(4-fluoro-2-pyridyl)oxymethyl)imidazo[1,2-a]pyrimidine], 100 to 500 nM. Then `Clc1ccc(-c2cnc3nc(COc4ccccc4)cn3c2)cc1` [Example 37, 6-(4-chlorophenyl)-2-phenoxymethylimidazo[1,2-a]pyrimidine], with 500 to 1000 nM; and `COc1cc(C#N)ccc1-c1cnc2nc(COc3ccc(F)cc3)cn2c1` [Example 68, 4-[2-[(4-fluorophenoxy)methyl]imidazo[1,2-a]pyrimidin-6-yl]-3-methoxy-benzonitrile], with 100 to 500 nM. Then `Fc1ccc(OCc2cn3cc(-c4ccc(F)cn4)cnc3n2)cc1` [Example 85, 2-[(4-fluorophenoxy)methyl]-6-(5-fluoro-2-pyridyl)imidazo[1,2-a]pyrimidine], with 100 to 500 nM; and `CC(=O)OCc1cc(F)ccc1-c1cnc2nc(COc3ccccn3)cn2c1` [Example 196, [5-fluoro-2-[2-(2-pyridyloxymethyl)imidazo[1,2-a]pyrimidin-6-yl]phenyl]methyl acetate], with 100 to 500 nM; and `Oc1cc(F)ccc1-c1cnc2nc(COc3ccnc(F)c3)cn2c1` [Example 167, 6-(4-fluoro-2-hydroxyphenyl)-2-(2-fluoropyridin-4-yloxymethyl)imidazo[1,2-a]pyrimidine], with 100 to 500 nM. With `Fc1ccc(-c2cnc3nc(COc4ccccc4)cn3c2)nc1` [Example 40, 6-(5-fluoro-2-pyridyl)-2-phenoxymethylimidazo[1,2-a]pyrimidine], the concentration giving a half-maximal response (EC50) lay in the range of 100 to 500 nM. With `COc1cc(F)ccc1-c1cnc2nc(COc3ccncc3)cn2c1` [Example 151, 6-(4-fluoro-2-methoxyphenyl)-2-(pyridin-4-yloxymethyl)imidazo[1,2-a]pyrimidine] the figure was 100 to 500 nM; with `Cc1ccc(-c2cnc3nc(COc4ccc(F)cn4)cn3c2)c(C)c1` [Example 128, 6-(2,4-dimethylphenyl)-2-[(5-fluoro-2-pyridyl)oxymethyl)imidazo[1,2-a]pyrimidine], 500 to 1000 nM; with `Fc1ccnc(OCc2cn3cc(-c4ccc(F)cc4C(F)(F)F)cnc3n2)c1` [Example 125, 2-[(4-fluoro-2-pyridyl)oxymethyl]-6-[4-fluoro-2-(trifluoromethyl)phenyl]imidazo[1,2-a]pyrimidine], 100 to 500 nM.

As for `Cc1c(F)cccc1-c1cnc2nc(COc3ccccn3)cn2n1` [Example 187, 2-(3-fluoro-2-methyl-phenyl)-6-(2-pyridyloxymethyl)imidazo[1,2-b][1,2,4]triazine], the 50% effective concentration (EC50) was in the range of 100 to 500 nM. On to `Cc1ccccc1-c1cnc2nc(COc3cncc(F)c3)cn2c1` [Example 153, 6-(2-methylphenyl)-2-(5-fluoro-pyridin-3-yloxymethyl)imidazo[1,2-a]pyrimidine], for which the EC50 was in the range of 100 to 500 nM.

Consider `c1ccc(OCc2cn3cc(-c4ccccc4)cnc3n2)cc1` [Example 2, 2-phenoxymethyl-6-phenylimidazo[1,2-a]pyrimidine], for which the concentration giving a half-maximal response (EC50) was in the range of 100 to 500 nM.

As to `Oc1ccc(OCc2cn3cc(-c4ccc(F)cc4)cnc3n2)cc1` [Example 52, 4-[[6-(4-fluorophenyl)imidazo[1,2-a]pyrimidin-2-yl]methoxy]phenol], the EC50 was in the range of 100 to 500 nM. Then `Oc1cc(F)ccc1-c1cnc2nc(COc3ccc(F)cc3)cn2c1` [Example 58, 5-fluoro-2-[2-[(4-fluorophenoxy)methyl]imidazo[1,2-a]pyrimidin-6-yl]phenol], with 100 to 500 nM; and `Cc1ccc(-c2cnc3nc(COc4ccc(F)cc4)cn3c2)cn1` [Example 92, 2-[(4-fluorophenoxy)methyl]-6-(6-methyl-3-pyridyl)imidazo[1,2-a]pyrimidine], with 100 to 500 nM. Then `OCc1cc(F)ccc1-c1cnc2nc(COc3ccnc(F)c3)cn2c1` [Example 170, 6-(4-fluoro-2-hydroxymethylphenyl)-2-(2-fluoropyridin-4-yloxymethyl)imidazo[1,2-a]pyrimidine], with 100 to 500 nM; and `Fc1ccc(OCc2cn3cc(-c4cnc(F)c(F)c4)cnc3n2)cc1` [Example 83, 6-(5,6-difluoro-3-pyridyl)-2-[(4-fluorophenoxy)methyl]imidazo[1,2-a]pyrimidine], with 100 to 500 nM; and `N#Cc1ccc(-c2cnc3nc(COc4ccccn4)cn3c2)cc1` [Example 140, 4-[2-(2-pyridyloxymethyl)imidazo[1,2-a]pyrimidin-6-yl]benzonitrile], with 100 to 500 nM. Then `COc1ccccc1-c1cnc2nc(COc3ccccc3)cn2c1` [Example 4, 6-(2-methoxyphenyl)-2-phenoxymethylimidazo[1,2-a]pyrimidine], with 100 to 500 nM; and `Fc1ccc(-c2cnc3nc(COc4ccccn4)cn3c2)cc1` [Example 102, 6-(4-fluorophenyl)-2-(pyridin-2-yloxymethyl)imidazo[1,2-a]pyrimidine], with 100 to 500 nM. As to `Cc1cc(F)ccc1-c1cnc2nc(COc3cccnc3F)cn2c1` [Example 159, 6-(4-fluoro-2-methylphenyl)-2-(2-fluoropyridin-3-yloxymethyl)imidazo[1,2-a]pyrimidine], the half-maximal effective concentration (EC50) lay in the range of 500 to 1000 nM. On to `Nc1cc(F)ccc1-c1cnc2nc(COc3cccc(F)c3)cn2c1` [Example 101, 5-fluoro-2-[2-[(3-fluorophenoxy)methyl]imidazo[1,2-a]pyrimidin-6-yl]aniline], for which the EC50 was in the range of 100 to 500 nM. Then `CCc1ccccc1-c1cnc2nc(COc3ccccn3)cn2c1` [Example 115, 6-(2-ethylphenyl)-2-(2-pyridyloxymethyl)imidazo[1,2-a]pyrimidine], with 100 to 500 nM; and `COc1cc(Cl)ccc1-c1cnc2nc(COc3ccccc3)cn2c1` [Example 22, 6-(4-chloro-2-methoxyphenyl)-2-phenoxymethylimidazo[1,2-a]pyrimidine], with 500 to 1000 nM.
